Reference: ChEMBL document CHEMBL1201862, “PubChem BioAssay data set” (2004)
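Protocol summary: plate cells (96-well), add compound at 5 concentrations, incubate 48 h, interpolate endpoints linearly. GI50 = concentration required for 50% inhibition of growth.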 Activity calls are given as the source filed them. Rule as the data show it: active = GI50 up to about 1.1 µM and inactive = higher.

Tests used:
Assay in all cases: inhibition of tumour cell growth, NCI panel, 48 h
[1] = test system: DLD-1
[2] = test system: DMS-114
[3] = test system: EKVX
[4] = test system: HCT-116
[5] = test system: HOP-62
[6] = test system: LOX IMVI
[7] = test system: Malme-3M
[8] = test system: NCI-H460
[9] = test system: OVCAR-4
[10] = test system: OVCAR-5
[11] = test system: OVCAR-8
[12] = test system: RXF 393
[13] = test system: SF-268
[14] = test system: SK-MEL-5
[15] = test system: SNB-19
[16] = test system: SW-620
[17] = test system: UO-31
[18] = test system: RPMI-8226
[19] = test system: HOP-92

Measured: GI50

CC1(C)CC(=O)C(CC2C(=O)CCCC2=O)C(=O)C1
inactive: [1] > 100 µM | [2] > 100 µM | [3] > 100 µM | [4] > 100 µM | [5] > 100 µM | [6] > 100 µM | [7] > 100 µM | [8] > 100 µM | [9] > 100 µM | [10] > 100 µM | [11] > 100 µM | [12] > 100 µM | [13] > 100 µM | [14] > 100 µM | [15] > 100 µM | [16] > 100 µM | [17] > 100 µM

Cc1ccccc1C(=O)Oc1ccc(Oc2ccccc2)cc1
inactive: [1] > 100 µM | [2] > 100 µM | [3] 73.5 µM | [4] > 100 µM | [5] > 100 µM | [7] > 100 µM | [8] 39.2 µM | [9] > 100 µM | [10] > 100 µM | [11] > 100 µM | [18] > 100 µM | [12] > 100 µM | [13] > 100 µM | [14] > 100 µM | [15] > 100 µM | [16] 73.6 µM | [17] 20.3 µM

Cc1cnc[nH]c1=O
inactive: [1] > 100 µM | [2] > 100 µM | [3] > 100 µM | [4] > 100 µM | [5] > 100 µM | [6] > 100 µM | [7] > 100 µM | [8] > 100 µM | [9] > 100 µM | [10] > 100 µM | [11] > 100 µM | [18] > 100 µM | [13] > 100 µM | [14] > 100 µM | [15] > 100 µM | [16] > 100 µM | [17] > 100 µM

COc1ccc(-c2cc(=O)c3c(O)c(OC)c(O)c(OC)c3o2)cc1OC
inactive: [1] 54.8 µM | [2] > 100 µM | [3] > 100 µM | [4] 57 µM | [5] 44.2 µM | [19] 25.1 µM | [7] > 100 µM | [9] > 100 µM | [11] > 100 µM | [18] 46 µM | [12] 14.1 µM | [13] 90.2 µM | [14] > 100 µM | [15] > 100 µM | [16] > 100 µM | [17] 21.5 µM

Cc1ccc(Oc2ccc([N+](=O)[O-])cc2[N+](=O)[O-])c(C)c1
inactive: [1] 56.4 µM | [2] 26.2 µM | [3] 88.7 µM | [4] 30.3 µM | [5] 49.2 µM | [7] 75 µM | [8] 37.3 µM | [9] 32.2 µM | [10] 82.8 µM | [11] 59.2 µM | [18] 26.5 µM | [12] 20.5 µM | [14] 21.1 µM | [16] 47.1 µM | [17] 40.5 µM

COc1ccc(C2N3CCCCC3[C@@H]3c4[nH]c5ccccc5c4CCN23)c(OC)c1 (some centres not stated)
inactive: [1] 33.4 µM | [2] 18.7 µM | [3] > 100 µM | [4] 21.1 µM | [5] 84.7 µM | [19] 49.9 µM | [8] 22 µM | [9] 25.5 µM | [10] 22.2 µM | [11] 33.3 µM | [18] 15.8 µM | [12] 14.1 µM | [13] 21.1 µM | [14] 16.3 µM | [15] 39.4 µM | [16] 33.7 µM | [17] 23.5 µM

Cc1ccc(C)c(NC(=O)CC2SC(Nc3ccccc3Cl)=NC2=O)c1 (configuration not stated)
inactive: [1] 77.4 µM | [2] 29.9 µM | [3] > 100 µM | [4] > 100 µM | [5] > 100 µM | [19] 27.7 µM | [7] > 100 µM | [8] > 100 µM | [9] 65.9 µM | [10] > 100 µM | [11] > 100 µM | [12] 90.8 µM | [13] > 100 µM | [14] 36.1 µM | [15] > 100 µM | [16] > 100 µM | [17] 75.9 µM

COc1cccc(-c2cc(=O)c3cc(C)c(C)c(C(=O)O)c3o2)c1
inactive: [1] > 100 µM | [2] > 100 µM | [3] > 100 µM | [4] > 100 µM | [5] > 100 µM | [19] > 100 µM | [6] > 100 µM | [7] > 100 µM | [8] > 100 µM | [9] > 100 µM | [10] > 100 µM | [11] > 100 µM | [18] > 100 µM | [13] > 100 µM | [14] > 100 µM | [15] > 100 µM | [16] > 100 µM | [17] > 100 µM

O=C1OC(c2ccccc2)=N/C1=C\c1cc(Cl)ccc1Cl
inactive: [1] 33.8 µM | [2] 49.8 µM | [3] > 100 µM | [4] 10.3 µM | [5] > 100 µM | [19] > 100 µM | [7] > 100 µM | [8] > 100 µM | [9] > 100 µM | [10] > 100 µM | [11] > 10 µM | [18] 44.8 µM | [12] > 100 µM | [13] 66.2 µM | [14] > 100 µM | [15] > 100 µM | [16] 34.9 µM | [17] > 100 µM
